Experimental data published in PMC4503722, “Novel Phenotypic Outcomes Identified for a Public Collection of Approved Drugs from a Publicly Accessible Panel of Assays” (PLoS ONE, 2015).

Legend:
[1] = target: T1, hGSK3b (Homo sapiens, UniProt P49841); test: Cerep LANCE kinase assay hGSK3b (S1 assay 34); type: biochemical; conditions: for hGSK3b LANCE IC50/EC50: assay number 34
T1 construct: purchased Cerep (LANCE kinase assay platform, contract assay)

[2] = target: T2, hFLT3 (Homo sapiens, UniProt P36888); test: Cerep LANCE kinase assay hFLT3 (S1 assay 35); type: biochemical; conditions: for hFLT3 LANCE IC50/EC50: assay number 35
T2 construct: purchased Cerep (LANCE kinase assay platform, contract assay)
T2 sequence (P36888 27-993): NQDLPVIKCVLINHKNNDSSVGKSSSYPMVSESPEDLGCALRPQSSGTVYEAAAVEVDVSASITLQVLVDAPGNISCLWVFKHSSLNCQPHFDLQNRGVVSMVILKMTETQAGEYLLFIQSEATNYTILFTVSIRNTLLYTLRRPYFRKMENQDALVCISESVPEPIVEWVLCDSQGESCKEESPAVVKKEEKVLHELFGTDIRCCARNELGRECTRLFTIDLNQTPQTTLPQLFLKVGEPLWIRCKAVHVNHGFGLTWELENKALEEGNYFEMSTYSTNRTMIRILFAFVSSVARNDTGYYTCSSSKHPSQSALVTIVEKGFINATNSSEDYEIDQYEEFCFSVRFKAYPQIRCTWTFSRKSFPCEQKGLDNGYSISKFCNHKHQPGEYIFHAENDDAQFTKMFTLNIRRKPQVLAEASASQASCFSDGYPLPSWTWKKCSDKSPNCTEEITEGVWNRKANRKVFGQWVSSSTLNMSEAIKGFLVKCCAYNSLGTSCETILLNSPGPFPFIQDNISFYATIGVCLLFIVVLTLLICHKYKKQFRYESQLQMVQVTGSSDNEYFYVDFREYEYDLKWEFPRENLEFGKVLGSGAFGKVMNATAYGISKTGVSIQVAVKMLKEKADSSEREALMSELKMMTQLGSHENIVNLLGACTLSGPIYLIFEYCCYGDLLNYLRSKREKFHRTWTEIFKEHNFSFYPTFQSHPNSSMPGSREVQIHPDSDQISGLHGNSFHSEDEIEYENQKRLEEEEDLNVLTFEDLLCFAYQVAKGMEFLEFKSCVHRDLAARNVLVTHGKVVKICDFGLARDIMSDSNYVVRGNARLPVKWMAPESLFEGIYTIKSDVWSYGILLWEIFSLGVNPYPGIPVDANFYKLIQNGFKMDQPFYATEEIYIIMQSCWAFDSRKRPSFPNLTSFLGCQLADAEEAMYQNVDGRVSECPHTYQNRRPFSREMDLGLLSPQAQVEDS

[3] = system: ECFC/ADSC co-culture cell nuclei number
[4] = target: T3, hJAK2 (Homo sapiens, UniProt O60674); test: Cerep LANCE kinase assay hJAK2 (S1 assay 33); type: biochemical; conditions: for hJAK2 LANCE IC50/EC50: assay number 33
T3 construct: purchased Cerep (LANCE kinase assay platform, contract assay)
T3 sequence (O60674 whole entry): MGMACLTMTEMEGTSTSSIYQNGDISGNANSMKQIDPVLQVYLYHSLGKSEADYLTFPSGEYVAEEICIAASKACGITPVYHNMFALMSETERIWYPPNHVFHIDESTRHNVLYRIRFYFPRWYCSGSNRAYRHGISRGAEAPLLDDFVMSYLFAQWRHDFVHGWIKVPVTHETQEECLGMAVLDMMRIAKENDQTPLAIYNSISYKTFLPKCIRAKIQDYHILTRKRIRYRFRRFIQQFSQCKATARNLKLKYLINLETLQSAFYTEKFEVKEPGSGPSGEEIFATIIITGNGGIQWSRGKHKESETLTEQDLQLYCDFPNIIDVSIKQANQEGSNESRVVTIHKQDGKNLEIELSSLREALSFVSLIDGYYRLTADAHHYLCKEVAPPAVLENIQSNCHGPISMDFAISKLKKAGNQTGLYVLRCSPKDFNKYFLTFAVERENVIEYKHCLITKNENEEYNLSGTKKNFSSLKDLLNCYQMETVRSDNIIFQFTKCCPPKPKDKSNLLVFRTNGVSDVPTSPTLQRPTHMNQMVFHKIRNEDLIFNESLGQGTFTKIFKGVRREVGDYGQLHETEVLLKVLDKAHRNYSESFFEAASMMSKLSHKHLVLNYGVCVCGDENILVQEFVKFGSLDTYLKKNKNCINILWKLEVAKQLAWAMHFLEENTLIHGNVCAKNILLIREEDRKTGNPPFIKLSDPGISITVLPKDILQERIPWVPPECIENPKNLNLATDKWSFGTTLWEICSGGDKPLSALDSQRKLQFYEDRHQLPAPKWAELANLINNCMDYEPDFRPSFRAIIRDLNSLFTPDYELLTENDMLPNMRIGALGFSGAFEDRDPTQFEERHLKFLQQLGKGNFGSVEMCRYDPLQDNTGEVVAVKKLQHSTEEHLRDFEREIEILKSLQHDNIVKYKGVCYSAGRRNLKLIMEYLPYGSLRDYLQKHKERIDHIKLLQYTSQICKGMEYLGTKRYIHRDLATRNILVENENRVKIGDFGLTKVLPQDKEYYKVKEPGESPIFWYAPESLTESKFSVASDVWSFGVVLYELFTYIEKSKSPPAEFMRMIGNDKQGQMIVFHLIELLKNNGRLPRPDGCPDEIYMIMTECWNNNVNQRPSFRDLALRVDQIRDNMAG

[5] = target: T4, hp70S6K1 (RPS6KB1) (Homo sapiens, UniProt P23443); test: Cerep LANCE kinase assay hp70S6K1 (S1 assay 31); type: biochemical; conditions: for hp70S6K1 LANCE IC50/EC50: assay number 31
T4 construct: purchased Cerep (LANCE kinase assay platform, contract assay)
T4 sequence (P23443 whole entry): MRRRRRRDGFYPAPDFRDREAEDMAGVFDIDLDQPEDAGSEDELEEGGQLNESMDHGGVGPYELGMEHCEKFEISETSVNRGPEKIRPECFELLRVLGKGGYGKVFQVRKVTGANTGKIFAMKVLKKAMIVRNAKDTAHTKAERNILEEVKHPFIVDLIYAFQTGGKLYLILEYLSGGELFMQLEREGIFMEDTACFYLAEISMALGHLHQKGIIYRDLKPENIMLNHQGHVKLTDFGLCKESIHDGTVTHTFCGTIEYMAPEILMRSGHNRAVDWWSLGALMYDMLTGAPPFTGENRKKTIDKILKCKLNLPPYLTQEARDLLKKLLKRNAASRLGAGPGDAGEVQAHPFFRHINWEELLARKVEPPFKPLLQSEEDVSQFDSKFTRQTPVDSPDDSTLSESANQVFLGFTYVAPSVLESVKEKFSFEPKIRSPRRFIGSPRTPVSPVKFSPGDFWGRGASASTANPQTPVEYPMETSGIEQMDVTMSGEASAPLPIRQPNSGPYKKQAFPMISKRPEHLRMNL

[6] = system: endothelial tube formation in co-cultures of ECFCs and ADSCs treated with VEGF; test: cells; type: cell-based, human
[7] = system: nuclear β-catenin in C2C12 cells; test: cells; type: cell-based; conditions: concentration response; for WntCondMedia_bCatenin C2C12 IC50/EC50: assay number 5
[8] = system: HeLa cells; test: cells; type: cell-based; conditions: for Hela CellCycMod PI 2N IC50/EC50: assay number 14; for Hela CellCycMod PI 4N IC50/EC50: assay number 16; for Hela CellCycMod PI MI IC50/EC50: assay number 17; for Hela CellCycMod PI Cell Number IC50/EC50: assay number 18; for Hela CellCycMod PI S Phase IC50/EC50: assay number 15
[9] = system: alkaline phosphatase (ALP) activity in C2C12 cells; type: cell-based; conditions: concentration response; for WntCondMedia_Alk Phos C2C12 IC50/EC50: assay number 6
[10] = target: T5, hKDR (Homo sapiens, UniProt P35968); test: Cerep LANCE kinase assay hKDR (S1 assay 32); type: biochemical; conditions: for hKDR LANCE IC50/EC50: assay number 32
T5 construct: purchased Cerep (LANCE kinase assay platform, contract assay)
T5 sequence (P35968 20-1356): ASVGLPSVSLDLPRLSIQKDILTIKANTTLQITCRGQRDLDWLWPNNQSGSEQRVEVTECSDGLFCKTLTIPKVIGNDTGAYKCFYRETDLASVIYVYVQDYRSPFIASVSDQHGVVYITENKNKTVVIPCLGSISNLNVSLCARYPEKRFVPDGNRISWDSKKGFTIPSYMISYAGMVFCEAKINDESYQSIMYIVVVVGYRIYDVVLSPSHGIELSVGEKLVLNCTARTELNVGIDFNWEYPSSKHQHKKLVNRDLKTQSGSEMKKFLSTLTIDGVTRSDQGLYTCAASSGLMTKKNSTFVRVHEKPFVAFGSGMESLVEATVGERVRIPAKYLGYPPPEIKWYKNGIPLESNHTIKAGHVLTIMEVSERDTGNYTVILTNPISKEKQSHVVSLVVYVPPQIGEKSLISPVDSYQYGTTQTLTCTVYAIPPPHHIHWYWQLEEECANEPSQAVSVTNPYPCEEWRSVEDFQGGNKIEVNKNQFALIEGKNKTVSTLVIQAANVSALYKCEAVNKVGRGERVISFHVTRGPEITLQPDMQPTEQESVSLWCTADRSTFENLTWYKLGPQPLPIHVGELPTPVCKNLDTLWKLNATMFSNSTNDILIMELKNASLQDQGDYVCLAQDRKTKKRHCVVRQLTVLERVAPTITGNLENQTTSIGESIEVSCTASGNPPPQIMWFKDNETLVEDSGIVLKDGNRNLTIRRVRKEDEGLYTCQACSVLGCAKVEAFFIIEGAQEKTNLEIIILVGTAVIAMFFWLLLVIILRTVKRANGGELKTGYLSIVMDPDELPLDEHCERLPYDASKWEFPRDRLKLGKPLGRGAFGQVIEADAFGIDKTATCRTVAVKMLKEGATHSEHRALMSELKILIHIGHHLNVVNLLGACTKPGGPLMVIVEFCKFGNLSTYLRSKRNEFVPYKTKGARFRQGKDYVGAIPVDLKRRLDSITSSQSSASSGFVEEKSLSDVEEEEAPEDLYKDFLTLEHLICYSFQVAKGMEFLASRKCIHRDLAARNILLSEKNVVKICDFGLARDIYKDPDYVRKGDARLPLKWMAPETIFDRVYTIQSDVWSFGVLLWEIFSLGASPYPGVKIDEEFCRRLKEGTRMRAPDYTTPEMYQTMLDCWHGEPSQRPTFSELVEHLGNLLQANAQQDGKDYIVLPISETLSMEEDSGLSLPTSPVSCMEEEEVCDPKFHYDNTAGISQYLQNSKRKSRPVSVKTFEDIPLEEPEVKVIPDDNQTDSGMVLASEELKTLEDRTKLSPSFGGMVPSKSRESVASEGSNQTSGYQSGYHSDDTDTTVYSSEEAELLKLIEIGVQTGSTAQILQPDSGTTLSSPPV

T1 sequence (P49841 whole entry): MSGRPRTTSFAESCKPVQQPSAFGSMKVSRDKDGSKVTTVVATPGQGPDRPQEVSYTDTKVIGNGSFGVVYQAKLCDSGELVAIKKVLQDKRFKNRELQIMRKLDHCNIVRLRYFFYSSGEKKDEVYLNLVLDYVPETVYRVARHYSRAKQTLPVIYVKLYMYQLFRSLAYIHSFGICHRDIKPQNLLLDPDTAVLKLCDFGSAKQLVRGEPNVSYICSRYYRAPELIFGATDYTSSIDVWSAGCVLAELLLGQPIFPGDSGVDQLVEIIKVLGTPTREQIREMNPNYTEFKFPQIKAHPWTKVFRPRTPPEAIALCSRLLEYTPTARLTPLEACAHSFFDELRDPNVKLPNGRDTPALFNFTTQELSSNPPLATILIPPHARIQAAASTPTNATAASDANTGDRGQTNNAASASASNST

SMILES | IC50/EC50, hGSK3b LANCE (assay number 34) [1] [µM] | IC50/EC50, hFLT3 LANCE (assay number 35) [2] [µM] | IC50/EC50, VEGF_ADSC\ECFC Angio Hoechst NucArea (assay number 3) [3] [µM] | IC50/EC50, hJAK2 LANCE (assay number 33) [4] [µM] | IC50/EC50, hp70S6K1 LANCE (assay number 31) [5] [µM] | IC50/EC50, VEGF_ADSC\ECFC Angio CD31 TubeArea (assay number 2) [6] [µM] | IC50/EC50, WntCondMedia_bCatenin C2C12 (assay number 5) [7] [µM] | hGSK3b LANCE IC50/EC50 [1] [µM] | hFLT3 LANCE IC50/EC50 [2] [µM] | VEGF_ADSC\ECFC Angio Hoechst NucArea IC50/EC50 [3] [µM] | hJAK2 LANCE IC50/EC50 [4] [µM] | hp70S6K1 LANCE IC50/EC50 [5] [µM] | VEGF_ADSC\ECFC Angio CD31 TubeArea IC50/EC50 [6] [µM] | WntCondMedia_bCatenin C2C12 IC50/EC50 [7] [µM] | Hela CellCycMod PI 2N IC50/EC50 [8] [µM] | Hela CellCycMod PI 4N IC50/EC50 [8] [µM] | Hela CellCycMod PI MI IC50/EC50 [8] [µM] | Hela CellCycMod PI Cell Number IC50/EC50 [8] [µM] | WntCondMedia_Alk Phos C2C12 IC50/EC50 [9] [µM] | hKDR LANCE IC50/EC50 [10] [µM] | further results
COC(=O)Nc1nc2ccc(C(=O)c3ccccc3)cc2[nH]1 [NCGC00016806-13] | > 20 | > 20 | > 10 | > 20 | > 20 | 0.3699 | 1.7387 | – | – | – | – | – | – | – | – | – | – | – | – | – | IC50/EC50, Hela CellCycMod PI 2N (assay number 14) [8]: 0.0761 µM; IC50/EC50, Hela CellCycMod PI 4N (assay number 16) [8]: 0.08 µM; IC50/EC50, Hela CellCycMod PI Cell Number (assay number 18) [8]: 0.0542 µM; IC50/EC50, Hela CellCycMod PI MI (assay number 17) [8]: 0.0648 µM; IC50/EC50, WntCondMedia_Alk Phos C2C12 (assay number 6) [9]: 0.2454 µM; IC50/EC50, hKDR LANCE (assay number 32) [10]: 1.43 µM
CC[C@]1(O)C[C@H]2CN(CCc3c([nH]c4ccccc34)[C@@](C(=O)OC)(c3cc4c(cc3OC)N(C=O)[C@H]3[C@@](O)(C(=O)OC)[C@H](OC(C)=O)[C@]5(CC)C=CCN6CC[C@]43[C@@H]65)C2)C1 [NCGC00263543-01] | – | – | – | – | – | – | – | > 20 | > 20 | > 10 | > 20 | > 20 | 0.0065 | 0.004 | 0.0062 | 0.0059 | 0.0061 | 0.0065 | 0.0051 | > 20 | –
CC[C@@]1(O)C(=O)OCc2c1cc1n(c2=O)Cc2c-1nc1ccccc1c2/C=N/OC(C)(C)C [NCGC00253588-01] | – | – | – | – | – | – | – | > 20 | > 20 | 0.7994 | > 20 | > 20 | 0.002 | 1.1571 | – | > 10 | > 10 | 0.0022 | 0.0032 | > 20 | –
Cc1cc(O)c2ccccc2c1O [NCGC00253592-01] | – | – | – | – | – | – | – | 19.11 | > 20 | 9.854 | > 20 | > 20 | 4.8933 | 4.3946 | > 10 | > 10 | > 10 | 2.4571 | 1.7548 | 18.36 | Hela CellCycMod PI S Phase IC50/EC50 [8]: > 10 µM
CC(C)(C)C(=O)OCOP(=O)(COCCn1cnc2c(N)ncnc21)OCOC(=O)C(C)(C)C [NCGC00164624-02] | – | – | – | – | – | – | – | > 20 | > 20 | > 10 | > 20 | > 20 | 0.3913 | 0.7043 | > 10 | > 10 | > 10 | 0.134 | 0.3874 | > 20 | Hela CellCycMod PI S Phase IC50/EC50 [8]: 0.0608 µM
[O-][n+]1ccccc1SSc1cccc[n+]1[O-] [NCGC00164493-02] | – | – | – | – | – | – | – | > 20 | > 20 | 1.7865 | > 20 | > 20 | 0.719 | 0.9914 | > 10 | > 10 | 2.2317 | 0.8425 | 0.1306 | > 20 | Hela CellCycMod PI S Phase IC50/EC50 [8]: > 10 µM
C=C(C)[C@H]1Cc2c(ccc3c2O[C@@H]2COc4cc(OC)c(OC)cc4[C@@H]2C3=O)O1 [NCGC00017358-15] | – | – | – | – | – | – | – | > 20 | > 20 | > 10 | > 20 | > 20 | 0.0257 | 2.9875 | 0.3111 | 0.3108 | 0.2229 | 0.1532 | 0.2539 | > 20 | Hela CellCycMod PI S Phase IC50/EC50 [8]: > 10 µM
CCCCCCNC(=O)n1cc(F)c(=O)[nH]c1=O [NCGC00095165-07] | – | – | – | – | – | – | – | > 20 | > 20 | > 10 | > 20 | > 20 | 4.486 | 4.9829 | > 10 | > 10 | > 10 | > 10 | 5.5533 | > 20 | –
COC(=O)c1nc(Cl)c(Cl)nc1N [NCGC00253704-01] | > 20 | 2.86 | 6.796 | > 20 | > 20 | 0.8652 | 0.3085 | – | – | – | – | – | – | – | – | – | – | – | – | – | IC50/EC50, Hela CellCycMod PI 2N (assay number 14) [8]: 0.3341 µM; IC50/EC50, Hela CellCycMod PI 4N (assay number 16) [8]: 0.5115 µM; IC50/EC50, Hela CellCycMod PI Cell Number (assay number 18) [8]: 0.4075 µM; IC50/EC50, Hela CellCycMod PI MI (assay number 17) [8]: 0.8681 µM; IC50/EC50, Hela CellCycMod PI S Phase (assay number 15) [8]: > 10 µM; IC50/EC50, WntCondMedia_Alk Phos C2C12 (assay number 6) [9]: 0.1565 µM; IC50/EC50, hKDR LANCE (assay number 32) [10]: > 20 µM
Cc1ccccc1C(=O)Nc1ccc(C(=O)N2CCCC(N(C)C)c3ccccc32)cc1 (stereo not drawn) [NCGC00262931-01] | – | – | – | – | – | – | – | > 20 | > 20 | > 10 | > 20 | > 20 | > 10 | 4.5593 | > 10 | > 10 | 3.4063 | 2.9147 | 9.9815 | > 20 | –
COC(=O)Nc1nc2ccc(C(=O)c3cccs3)cc2[nH]1 [NCGC00015647-18] | 19.89 | > 20 | > 10 | > 20 | > 20 | 0.1018 | 0.2351 | – | – | – | – | – | – | – | – | – | – | – | – | – | IC50/EC50, Hela CellCycMod PI 2N (assay number 14) [8]: 0.0174 µM; IC50/EC50, Hela CellCycMod PI 4N (assay number 16) [8]: 0.01755 µM; IC50/EC50, Hela CellCycMod PI MI (assay number 17) [8]: 0.01339 µM; IC50/EC50, Hela CellCycMod PI S Phase (assay number 15) [8]: > 10 µM; IC50/EC50, WntCondMedia_Alk Phos C2C12 (assay number 6) [9]: 0.0434 µM; IC50/EC50, hKDR LANCE (assay number 32) [10]: 6.61 µM
CCN(CC)CCNc1ccc(CO)c2sc3ccccc3c(=O)c12 [NCGC00016622-08] | > 20 | > 20 | > 10 | > 20 | 17.07 | 8.3546 | > 20 | – | – | – | – | – | – | – | – | – | – | – | – | – | IC50/EC50, Hela CellCycMod PI 2N (assay number 14) [8]: 5.6786 µM; IC50/EC50, Hela CellCycMod PI 4N (assay number 16) [8]: > 10 µM; IC50/EC50, Hela CellCycMod PI Cell Number (assay number 18) [8]: 5.9199 µM; IC50/EC50, Hela CellCycMod PI MI (assay number 17) [8]: > 10 µM; IC50/EC50, Hela CellCycMod PI S Phase (assay number 15) [8]: > 10 µM; IC50/EC50, WntCondMedia_Alk Phos C2C12 (assay number 6) [9]: 2.6738 µM; IC50/EC50, hKDR LANCE (assay number 32) [10]: > 20 µM
CC[C@@H]([C@H](C)O)n1ncn(-c2ccc(N3CCN(c4ccc(OC[C@@H]5CO[C@@](Cn6cncn6)(c6ccc(F)cc6F)C5)cc4)CC3)cc2)c1=O [NCGC00274060-01] | – | – | – | – | – | – | – | > 20 | > 20 | > 10 | > 20 | > 20 | 6.461 | 5.2923 | > 10 | > 10 | > 10 | > 10 | 1.6342 | > 20 | –
